We go through 2 compounds from paper PMC8416643 (International Journal for Parasitology: Drugs and Drug …, 2021).

For data set [1], the system named is N. caninum transgenic strain expressing β-galactosidase. Put plainly: In vitro proliferation of Nc-β-gal tachyzoites in HFF monolayers (β-galactosidase readout). In kind it is cell-based, Neospora caninum. Conditions: compound added concomitantly to infection, 72 h. The protocol:
In vitro efficacy assessments of ELQ-316, ELQ-334, ELQ-422, BKI-1748, and respective drug combinations were done using Nc-β-gal ([Barna et al., 2013]; [Schorer et al., 2012]). Briefly, HFF monolayers were cultured in 96-well plates and were infected with 10^3 Nc-β-gal tachyzoites in the presence of ELQ-316, ELQ-334, ELQ-422, and BKI-1748, as well as the combinations of BKI-1748 with each of the three ELQs. All drugs and combinations were prepared as serial dilutions of 20000, 2000, 200, 20, 2, 0.2, 0.02, 0.002 and 0.0002 nM in cell culture medium, respectively. The stock solutions of ELQs as well as the medium were heated up to 37 °C before use. After three days of culture (37 °C/5% CO2) in the presence of compounds, wells were washed with 200 μl PBS, and 90 μl of PBS containing 0.05% Triton X-100 were added into each well. After addition of 10 μl 5 mM chlorophenol red-β-D-galactopyranoside dissolved in PBS, the absorption shift was measured at a wavelength of 570 nm at various time points on an Enspire multilabel reader (Perkin Elmer, Waltham). The half-maximal effective concentrations (EC50 values) were calculated after the logit-log transformation of relative growth and subsequent regression analysis by use of the corresponding software tool contained in the Excel software package (Microsoft, Seattle, WA).

On the set-up of data set [2]: method as in Doggett et al., 2020. The conditions noted are these: ref Doggett et al., 2020; cited from earlier work.
Data set [3] concerns BALB/c mice. The conditions noted are these: non-infected pregnant BALB/c, five times 10 mg/kg/day, pups from four dams; ref Anghel et al., 2018; cited from earlier work.
Data set [4] relates to T. gondii. On the set-up: method as in Doggett et al., 2020; Martynowicz et al., 2020. The conditions noted are these: persistently T. gondii infected mice, ref Doggett et al., 2020, Martynowicz et al.; cited from earlier work.
Data set [5] can be described thus: BKI-1748 and ELQ-316 concentration in BALB/c mouse plasma (LC-MS/MS). In kind it is in vivo. Conditions: 1 h after final of 5 daily oral doses, ELQs 10 mg/kg, BKI-1748 20 mg/kg. The method, then: Thirty-six BALB/c female and 18 male mice, six weeks of age were used. Female mice were oestrus synchronized during three days by the Whitten effect ([Whitten, 1957]), and mated for three nights by housing one male with two females. After mating, males were removed and female mice were randomly allocated to six experimental groups (six mice per group, two females per cage). […] The placebo group received 100 μl corn oil for five consecutive days. […] Live and stillborn pups were counted, and dead pups removed. Data on the number of female mice that became pregnant, litter size (number of delivered pups per dam), stillborn mice (dead pups from birth until day two post-partum), post-natal mortality (dead pups from day three post-partum to the end of the experiment), and clinical signs of treated mice were recorded. Dams and live pups were monitored for two weeks after birth to rule out possible adverse effects due to treatments. […]
BKI-1748 and ELQ-316 concentrations in mouse plasma samples were determined as previously described ([Hulverson et al., 2019]; [Imhof et al., 2021]). Briefly, BKI-1748 and ELQ-316 were extracted from plasma using acetonitrile/0.1% formic acid with an internal standard and a standard curve was prepared for quantification. […]

Data set [6] relates to N. caninum NcSp-7 tachyzoites. Also on record: method as in Anghel et al., 2018. Conditions: ref Anghel et al., 2018, cited from earlier work.
Data set [7] concerns BALB/c mice. Kind of data set: Assessment of potential interference in pregnancy in non-infected BALB/c mice. Conditions: ELQs 10 mg/kg, BKI-1748 20 mg/kg; for Fertility: corn oil, gavage, days 9–13 of pregnancy, pregnant/total females. The data set is classed as in vivo. The method, then:
Thirty-six BALB/c female and 18 male mice, six weeks of age were used. […] After mating, males were removed and female mice were randomly allocated to six experimental groups (six mice per group, two females per cage). […] The placebo group received 100 μl corn oil for five consecutive days. […] During the experimental period, mice were examined daily and weighed several times during pregnancy to determine the number of pregnant animals and to detect possible abortions (which would result in rapid weight loss). On day 18 post-mating, pregnant females were separated into individual cages, where they gave birth on days 20–22 post mating. Live and stillborn pups were counted, and dead pups removed. Data on the number of female mice that became pregnant, litter size (number of delivered pups per dam), stillborn mice (dead pups from birth until day two post-partum), post-natal mortality (dead pups from day three post-partum to the end of the experiment), and clinical signs of treated mice were recorded. Dams and live pups were monitored for two weeks after birth to rule out possible adverse effects due to treatments. At the end of the experiment, mice were euthanized in a euthanasia chamber using isoflurane and CO2.

Data set [8] concerns N. caninum NcSp-7 tachyzoites. Conditions: BKI-1748 20 mg/kg. The method, then: Ninety BALB/c female mice and 45 male mice, six weeks of age were used in this experiment. Oestrus synchronization and mating was performed as described above. After mating, (day 0) female mice were randomly assigned to seven groups: ELQ-334 (n = 14), ELQ-422 (n = 14), BKI-1748 (n = 14), ELQ-334 + BKI-1748 (n = 14), ELQ-422 + BKI-1748 (n = 14), positive control (corn oil treatment and infection, n = 14), and negative control (corn oil treatment without infection, n = 6). NcSp-7 tachyzoites were transferred from HFF cells to BALB/c dermal fibroblasts and maintained at 37 °C and 5% CO2 three days prior to infection ([Imhof et al., 2021]). On day 7, tachyzoites were harvested and prepared for infection as previously described ([Arranz-Solís et al., 2015]). In brief, tachyzoite-infected fibroblasts were recovered from culture flasks when they were >90% of intracellular tachyzoites still located in parasitophorous vacuoles, and infected cells were repeatedly passed through a 25-gauge needle at 4 °C. […] A sublethal dose of 10^5 tachyzoites in 100 μl were administered to each mouse by subcutaneous injection. The negative control group was inoculated with 100 μl dermal fibroblasts. From two days post-infection (day 9), compounds were administered in 100 μl corn oil on days nine to 13 of pregnancy, calculated after the first day of mating, as follows: ELQ-334 was administered at 5 mg/kg, ELQ-422 at 7.5 mg/kg, and BKI-1748 was administered at 20 mg/kg. The combined treatment groups were: ELQ-334 at 5 mg/kg + BKI-1748 at 20 mg/kg, and ELQ-422 at 7.5 mg/kg + BKI-1748 at 20 mg/kg. The positive and negative controls received 100 μl corn oil for five consecutive days. On day 18, pregnant females were separated into individual cages, they gave birth on days 20–22, and were allowed to rear their pups for 28 days until day 48–50. Live and stillborn pups were counted, and dead pups were removed, and the non-pregnant mice were also monitored during the following 30 days until day 50. Dams and their offspring were evaluated for clinical signs of disease, and data on the number of dams, stillborn pups and those dying postnatally were monitored. All mice were euthanized four weeks post-partum as described above. Blood was collected by cardiac puncture, centrifuged, and serum was stored at −20 °C for subsequent analysis of IgG1 and IgG2a levels by ELISA. Brain was collected and stored at −20 °C prior to further processing.
For the quantification of the brain parasite load in all the mice, a real-time PCR method designed for quantification of N. caninum DNA was employed ([Aguado-Martínez et al., 2019]; [Müller et al., 2002]). DNA extraction and purification were done with the NucleoSpin DNA RapidLyse Kit (Macherey-Nagel, Oensingen, Switzerland) employing the standard protocols. DNA concentrations in all samples were determined using the QuantiFluor double-stranded DNA (dsDNA) system (Promega, Madison, WI, USA) according to the manufacturer's instructions and adjusted to 5 ng/μl with sterile DNase-free water. Quantitative real-time PCR was performed using the Light Cycler (Roche, Basel, Switzerland), and parasite loads calculated with a standard curve of N. caninum DNA samples of 10, 100, and 1000 tachyzoites included in each run.
Levels of IgG1 and IgG2a in N. caninum infected mice were assessed by ELISA as described previously ([Debache et al, 2008], [2009]). Briefly, 96-well plates were coated with 200 ng NcSp-7 soluble tachyzoite protein extract diluted in coating buffer (50 mM sodium bicarbonate; 50 mM sodium carbonate both dissolved in ultrapure water; pH 9.6) per well.

The structures appear in SMILES notation. Where “and” joins values, the source holds several entries; their conditions need not be identical. Identical values can stand only once. Entries after “also recorded” stand apart in the source; their conditions may differ. Like-named read-outs stand apart in the source and are kept apart here.

Turning to `COc1cc2[nH]c(C)c(-c3ccc(Oc4ccc(OC(F)(F)F)cc4)cc3)c(=O)c2cc1F` [ELQ-316], the EC50 in data set [1] is 1.55 nM. For the same compound, in data set [2], the Solubility result is recorded as “low solubility; also recorded: poor solubility”.

As to `CCOC(=O)Oc1c(-c2ccc(Oc3ccc(OC(F)(F)F)cc3)cc2)c(C)nc2cc(OC)c(F)cc12` [ELQ-334], the Neonatal mortality entry in data set [3] is “one out of 27”; in data set [6] (N. caninum infected pregnant mice, 10 mg/kg/day, pups from 10 dams) it was “seven out of 44”; in data set [7] (gavage days 9–13, pups born dead or died within 2 days post-partum), “two out of 11 and 2/11”. The “Tissue cysts in the brain” value in data set [4] is “dramatic reduction of tissue cyst in the brain”. For the same compound, the “Plasma concentration ELQ-316” value was 11.16 µM and 15.81 µM and 13.24 µM in data set [5] (non-pregnant mouse); 12.71 µM and 18.58 µM in data set [5] (pregnant mouse). Further, the “Reduction of vertical transmission” value in data set [6] (10 mg/kg/day) is recorded as 50%. Also, the “Cerebral parasite burden in non-pregnant mice compared to the placebo group” value in data set [6] (10 mg/kg) is reported as “not notably reduced”. Moreover, the concentration for a half-maximal effect (EC50) in data set [1] came to 54.2 nM. In addition, the figures for the Fertility in data set [7] and in data set [7] (listed as ELQ-344) were 2/6 and “Two of six”, respectively. In addition, the Postnatal mortality in data set [7] (gavage days 9–13, pups that died during days 3–14 post-partum) is given as 1/9. In data set [7] (gavage days 9–13 of pregnancy), the Pups per dam is 11/2. Further, the “Pups: Litter size” value in data set [8] (infected dams, ELQ-334 5 mg/kg, ELQ-422 7.5 mg/kg, days 9–13) was determined as 33. Besides, the “Pups: N. caninum PCR positive” value in data set [8] (infected dams, ELQ-334 5 mg/kg, ELQ-422 7.5 mg/kg, brains from surviving pups) is given as 2/29. Also, the “Vertical transmission of N. caninum to the pups” value in data set [8] (infected dams, ELQ-334 5 mg/kg, ELQ-422 7.5 mg/kg, positive control 100%) came out at 10.3%. In addition, in data set [8] (infected dams, ELQ-334 5 mg/kg/day), the “Inhibition of vertical transmission / pup infection” value is more than 90%. Further, the “Non-pregnant females: Clinical signs” value in data set [8] (infected, ELQ-334 5 mg/kg, ELQ-422 7.5 mg/kg, days 9–13) is reported as 0/8. Moreover, the “Dams: Total no.” value in data set [8] (infected, ELQ-334 5 mg/kg, ELQ-422 7.5 mg/kg, days 9–13, pregnant/total females) is recorded as 6/14.

A word on the EC50: it is the concentration that produces a half-maximal response.
